Measured values reported in patent US20190070165A1, “N-HYDROXYISOQUINOLINEDIONE INHIBITORS OF HBV REPLICATION” (Saint Louis University, priority 2016, published 2019).
“Also recorded” adds a separate entry of the source.

Key:
HBV RNaseH [1] = molecular target: T1, HBV RNaseH (Hepatitis B virus genotype D subtype ayw, UniProt P03156); conditions: Table 3, compounds at 100, 60 and 20 μM; compounds 1-91 and 138-140 previously reported (Cai et al., 2014)
Target sequence in this assay (P03156 671-832): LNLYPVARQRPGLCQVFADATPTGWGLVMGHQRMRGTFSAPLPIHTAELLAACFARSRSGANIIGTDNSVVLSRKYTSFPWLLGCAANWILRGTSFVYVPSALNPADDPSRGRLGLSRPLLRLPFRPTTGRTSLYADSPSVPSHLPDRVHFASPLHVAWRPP
Protocol: RNaseH expression and purification. […] The enriched extracts were dialyzed into 50 mM HEPES pH 7.3, 300 mM NaCl, 20% glycerol, and 5 mM DTT and stored in liquid nitrogen.
Oligonucleotide-directed RNA cleavage assay. […] This mixture was incubated with test compounds in 50 mM Tris pH 8.0, 190 mM NaCl, 5 mM MgCl2, 3.5 mM DTT, 0.05% NP40, 6% glycerol, and 1% DMSO at 42° C. for 90 minutes. Cleavage products were resolved by denaturing polyacrylamide gel electrophoresis, detected by autoradiography, and quantified using ImageJ. Non-specific background values were determined from the incorrect oligonucleotide negative control lane and subtracted from all experimental values. IC50 values were then calculated with GraphPad Prism using three-parameter log(inhibitor) vs. response non-linear curve fitting with the curve minimum set to zero to reflect background subtraction.
The HBV RNaseH inhibition activity of the 16 previously untested compounds was examined using an oligonucleotide-directed cleavage assay. Compounds were incubated with the HBV RNaseH, a ^32P-labeled RNA substrate plus a complementary DNA oligonucleotide and compounds at 100, 60, and 20 μM and the amount of the RNA cleavage products was measured following resolution on an acrylamide gel.
Briefly, a ^32P-labeled RNA was combined with a DNA oligonucleotide and the RNA:DNA substrate was incubated in the presence of the RNaseH and test compounds in 50 mM tris pH 8.0, 190 mM NaCl, 5 mM MgCl2, 3.5 mM DTT, 0.05% NP40, 6% glycerol, and 1% DMSO at 42° C. for 90 minutes. The products were resolved by gel electrophoresis and detected by audioradioagraphy.

HBV replication = HBV replication inhibition assay in HepDES19 cells (strand-preferential q-PCR); type: cell-based, Hepatitis B virus
HSV-1 = HSV-1 replication inhibition assay in Vero cells; type: cell-based, herpes simplex virus 1; conditions: Human alphaherpesvirus 1, 24 h; 5 μM, Vero cells; read-out: HSV-1 suppression (log10 at 5 μM), class symbol
HBV RNaseH [2] = molecular target: T1, HBV RNaseH; assay: Detection of capsid-associated RNA:DNA heteroduplexes by Southern analysis; type: cell-based; design: expressed in transfected cells; host or cells: HepDES19 (HepG2 with a stably transfected HBV genotype D genome); conditions: HepDES19 cells, seven days; #89 at 4×EC50 (10.4 μM), #138 at 30 μM
Protocol: RNA:DNA heteroduplexes migrate as double-stranded products, but degradation of the RNA strand with exogenous RNase causes the DNAs to migrate as single-stranded species. To test for accumulation of RNA:DNA heteroduplexes, HepDES19 cells replicating HBV were treated with 4×EC50 (10.4 μM) of compound #89 and 30 μM compound #138 (negative control). HBV cores were harvested after seven days of compound treatment. Capsid-associated nucleic acids were purified and split into two pools; one pool was treated with RNaseA and the other pool was mock treated.
HepDES19 cells were plated in 100 mm dishes without tetracycline and incubated for 72 hours in the absence of tetracycline before addition of compound #89 at 4×EC50 (10.4 μM) and the negative control compound #138 at 30 μM; compound-containing media was replaced every three days. HBV nucleic acids were purified seven days after compound addition. HBV core particles were isolated by sedimentation through a sucrose cushion as described (Tavis et al., 1998). Cores were treated overnight with proteinase K (0.5 mg/mL) and 1.5% SDS at 37° C. Nucleic acids were purified by phenol-chloroform extraction and ethanol precipitation. The nucleic acids were split into two pools. One pool was treated with RNaseA (1.5 μg/μL) at 37° C. for 30 minutes and the other was mock-treated. […]
Target sequence in this assay (P03156 whole entry): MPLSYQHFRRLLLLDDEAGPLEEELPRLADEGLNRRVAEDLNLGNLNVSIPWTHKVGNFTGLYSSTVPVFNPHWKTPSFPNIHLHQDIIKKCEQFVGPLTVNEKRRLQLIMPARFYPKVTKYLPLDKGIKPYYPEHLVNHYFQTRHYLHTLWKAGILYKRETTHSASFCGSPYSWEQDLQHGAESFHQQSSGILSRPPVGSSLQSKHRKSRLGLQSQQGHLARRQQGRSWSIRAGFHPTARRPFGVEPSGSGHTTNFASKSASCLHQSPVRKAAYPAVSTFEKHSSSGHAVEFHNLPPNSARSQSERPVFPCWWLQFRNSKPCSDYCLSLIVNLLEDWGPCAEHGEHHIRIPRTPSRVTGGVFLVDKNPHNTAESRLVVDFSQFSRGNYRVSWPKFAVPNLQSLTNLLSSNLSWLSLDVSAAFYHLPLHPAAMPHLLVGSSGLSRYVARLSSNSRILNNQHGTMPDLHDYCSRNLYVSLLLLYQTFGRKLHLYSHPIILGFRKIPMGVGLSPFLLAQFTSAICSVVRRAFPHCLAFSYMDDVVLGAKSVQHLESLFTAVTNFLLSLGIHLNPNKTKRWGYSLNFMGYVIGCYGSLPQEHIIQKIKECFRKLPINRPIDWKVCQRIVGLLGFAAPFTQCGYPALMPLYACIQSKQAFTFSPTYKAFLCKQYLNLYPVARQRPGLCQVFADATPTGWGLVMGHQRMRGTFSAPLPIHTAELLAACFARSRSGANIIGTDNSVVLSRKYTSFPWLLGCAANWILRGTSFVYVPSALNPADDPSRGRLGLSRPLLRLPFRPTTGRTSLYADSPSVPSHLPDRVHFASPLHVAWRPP

SMILES: O=C1c2ccccc2C(=O)N1O [Compound 138]
- Inhibition of HBV RNaseH, Oligonucleotide directed cleavage assay (HBV RNaseH [1]): − (No inhibition detected at 100 μM)
- HBV replication inhibition / activity (HBV replication; HepDES19 cells): does not inhibit HBV replication; also recorded: inactive
- HBV replication inhibition (qualitative) (HBV replication; Table 3, qualitative screen at 20 μM): − (No inhibition detected at 20 μM)
- log reduction at 5 µM (HSV-1): < 1
- accumulation of RNA:DNA heteroduplexes (HBV RNaseH [2]): unaltered by exogenous RNase treatment
